# Bridges are numbered along the chain shown (N, C = ends). Roman numbers before positions name the chains, in order. Where no end group is shown, it is not given here.
# How the values were obtained:
# [1] = system: TREG cells within melanoma tumors; experiment: TREG cells in tumors of melanoma-bearing mice; assay type: in vivo, mouse; conditions: preliminary (data not shown)
# [2] = system: peritoneal cells of Balb/c mice; experiment: Peritoneal immune cell populations by flow cytometry, healthy Balb/c mice; assay type: in vivo, mouse (Balb/c)
# Experimental: Healthy C57BL/6 male mice, 10 weeks old, were injected subcutaneously with peptides on alternate days. Peritoneal cells were isolated from mice 24 h after dosing by injecting ice cold PBS (containing 3% FBS) into the peritoneal cavity, gently massaging the abdomen, and then collecting the fluid, which was transferred into K2EDTA-treated tubes for evaluation of specific biomarkers. Cells from three mice in each group were pooled, counted and divided among FACS tubes (1 × 10^6 cells per tube). Cells were washed once in PBS containing 3% FBS, then stained with 0.25 to 1 μg of fluorescently conjugated antibody per 10^6 cells in 100 μL of buffer as recommended by the manufacturer (Table 2).
# Cells were incubated with the antibodies for 30 min at 4 °C in the dark. Following staining, the cells were washed two times with PBS/3% FBS and immediately analyzed with a MACSQuant flow cytometer (Miltenyi Biotech, Inc., San Diego, CA). Compensation was performed using single stain tubes for each color present in the analysis as well as an unstained control sample. Collection of flow cytometric data and analysis with FlowJo software, version 10.0.6 (FlowJo, LLC, Ashland, OR) were performed by Biomodels LLC (Watertown, MA).
# To examine whether increases occurred in mature immune cells, peritoneal cells from Balb/c and C57BL/6 mice were analyzed by flow cytometry after cells were stained with the markers listed in Table 2. […] To explore this observation more extensively, svL4 or sv6D was injected into C57BL/6 mice on day 0, 2 or 4. Peritoneal cells were examined by flow cytometry 24 h after each injection. Shown in Fig. 5 are results expressed as cell counts for F4/80 CD11b CD86 (mature, active macrophages); CD11c (DCs); CD11c CD 86 (activated DCs); CD4 CD69 (activated T cells); CD8 CD69 (activated cytotoxic T cells); NK1.1 CD3^+ CD69 (activated NKT cells); NK1.1 CD3^− CD69 (activated NK cells); CD19 (B cells); and CD19 CD73 CD80 CD273 (memory B cells). The numbers of these mature, activated cells continued to increase with each injection.
# [3] = system: monocytes in the peritoneal cavity of RAG^—/— mice; experiment: Peritoneal monocyte response in RAG^—/— mice; assay type: in vivo, mouse (RAG^—/—); conditions: s.c. injection (data not shown)
# Experimental: To determine whether the target(s) for svL4 is located on lymphocytes, with subsequent cross-talk signaling to achieve activation of monocytes, an experiment was performed in which svL4 was injected into RAG^—/— mice, which lack activity of rag, the recombination activation gene. The ability to perform recombination to generate antigen-specific antibodies by V(D)J recombination is required for B and T cell precursors to produce functional antigen receptors on their surface, and without a functional rag gene these cells undergo apoptosis.
# [4] = system: CLEC9A; experiment: Solid-phase binding to CLEC9A; set-up: species or system human; conditions: Fig. 2b
# Experimental: (§1) Solid-phase binding assays were performed with streptavidin-, protein A/G-, or Nickel-coated microtiter plates (Pierce). His-tagged or Fc-fusion recombinant receptors (R&D Systems, Minneapolis, MN) were reconstituted in PBS. Sufficient receptors were added to wells to saturate the coating. His-tagged receptors were added to each well at a 5-fold excess over the stated capacity of the Ni coating to minimize non-specific binding of the peptide. Wells were washed three times with binding buffer (25 mM Tris HCl, pH 7.4, 150 mM NaCl, 0.05% Tween-20) to remove unbound receptor and 50 μL of 2 μM biotinylated peptide in binding buffer were added and allowed to incubate for 1 h. The wells were washed four times with binding buffer and then incubated with 50 μL of 1 μg/mL streptavidin conjugated with peroxidase (Sigma-Aldrich) for 1 h. […] After several minutes to allow color development, the reaction was stopped with 50 μL 1 M H3PO4 and absorbance was measured at 450 nm. Bound streptavidin was quantitated by the specific activity of peroxidase (absorbance/ng protein conjugate/min) under the conditions of the assay.
# (§2) Solid-phase binding assays were performed with recombinant human receptors. […] After extensive washing, the bound receptor was measured by peroxidase conjugated to a receptor-specific antibody. […]
# [5] = system: Siglec-1; experiment: Solid-phase binding to Siglec-1; set-up: species or system human; conditions: Fig. 2b
# Experimental: as §1, §2
# [6] = Antigenicity assay in mouse sera; assay type: in vivo; conditions: 1 nmole/g s.c., alternate days for 3 months; sera of 8 treated mice, Fig. 8
# Experimental: The sequence of one arm of svL4 or sv6D was conjugated to keyhole limpet hemocyanin (KLH) and injected into rabbits at two week intervals (total of 3 injections) (New England Peptide, Inc., Gardner, MA). Two weeks after the final injection, sera were prepared. Mice were injected with a peptide every other day over a period of 3 months (total ~ 45 injections), blood was then collected by cardiac puncture and sera were prepared. Rabbit serum was diluted 1:10, whereas mouse serum was diluted 1:1 or 1:5 with PBS containing 0.05% Tween-20 (PBST). Sera were incubated in microtiter wells coated with protein A/G (Pierce) for 90 min. The wells were washed three times with PBST, and then incubated with 50 μL of 1 μM biotinylated svL4 or sv6D for 1 h. The wells were washed four times with PBST, incubated 1 h with 1 μg/mL streptavidin-peroxidase conjugate, and washed four times with PBST. Peroxidase activity was assayed as above under Binding Assays.
# Fig. 8 Test for antigenicity of svL4 and sv6D. Anti-sera were generated in rabbits against KLH-conjugates of the sequences of svL4 or sv6D and diluted 1:10. Mouse sera were collected after alternate-day injections of svL4 over 3 months, diluted 1:1 with PBS and added to protein-A/G-coated wells. Biotinylated svL4 or sv6D was added to wells and bound peptide was detected with a streptavidin-peroxidase conjugate. […]
substance,measurement,setting,value
"I: VQATQSNQHTPRGGGSKK-NH2 / II: VQATQSNQHTPRGGGSK / III: VQATQSNQHTPRGGGS / IV: VQATQSNQHTPRGGGS (amide I:17-IV:C, I:18-II:C, II:17-III:C) [svL4]",TREG cells within tumors,[1],dramatic reduction in TREG cells
same,"increases in macrophages, DCs, T cells and NK cells","[2]; 1 nmole/g s.c., 24 h after a single injection",Several-fold increases
same,CD90.2^+ fraction of small cells,[2]; after treatment with svL4,about 15%
same,increase in mature immune cells,[2]; within 24 h after a single injection (data not shown),approximately 2 fold
same,"small cells (low FSc, low SSc)","[2]; within 24 h after injection, healthy Balb/c, Fig. S1b",decreased to a minimal level
same,response of peritoneal monocytes vs. C57BL/6,[3],essentially the same as that in C57BL/6 mice
same,binding to CLEC9A,[4],did not bind significantly
same,binding to Siglec-1,[5],did not bind significantly
same,antibodies that bind the peptides in mouse sera,[6],negative
